Laboratory results taken from patent publication US20160106102A1, “KNOWN AND NEW HETEROCYCLIC COMPOUNDS AS PEST CONTROL AGENTS” (BAYER CROPSCIENCE AKTIENGESELLSCHAFT, priority 2013, published 2016).
Read-outs that look alike come from different tables or passages of the source.

What was measured:
Myzus persicae [1] = assay: Myzus persicae - sachet test; type: in vivo; conditions: 100% = all animals killed; for pest or weed control at 6 ppm / pest or weed control at 30 ppm: Myzus persicae, read-out: efficacy (kill in %)
Procedure, shortened: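 Green peach aphids feed through a sealed sachet on nutrient medium containing the water-diluted formulation (solvents: 2% N-methylpyrrolidone, 2% diacetone alcohol). Percent mortality read after the chosen time; 100% means all animals killed.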

[2] = log P determination by LC-MS in the acidic range; type: physicochemical
From the text: The LC-MS determination in the acidic range is effected at pH 2.7 using 0.1% aqueous formic acid and acetonitrile (contains 0.1% formic acid) as eluents, linear gradient from 10% acetonitrile to 95% acetonitrile. Alternatively, the determination is effected in the acidic range at pH 2.3 using 0.1% aqueous phosphoric acid and acetonitrile as eluents; linear gradient from 10% acetonitrile to 95% acetonitrile.

Myzus persicae [3] = assay: Myzus persicae - spray test; type: in vivo; conditions: application rate of 500 g/ha, after 6 days, sprayed Chinese cabbage leaf discs infested by all stages, 100% = all aphids killed; for pest or weed control at 500 g/ha: Myzus persicae, foliar, 144 h, read-out: efficacy in %
Procedure: Myzus persicae—spray test Solvent: 78 parts by weight of acetone • • 1.5 parts by weight of dimethylformamide Emulsifier: 0.5 part by weight of alkylaryl polyglycol ether To produce an appropriate active ingredient formulation, 1 part by weight of active ingredient is mixed with the specified amounts of solvent and emulsifier, and the concentrate is diluted to the desired concentration with emulsifier-containing water. Discs of Chinese cabbage leaves (Brassica pekinensis) infested by all stages of the green peach aphid (Myzus persicae) are sprayed with an active ingredient formulation of the desired concentration. After 6 days, the efficacy in % is determined. 100% means that all the aphids have been killed; 0% means that no aphids have been killed.

[4] = application rate of 6 ppm in nutrient medium
[5] = application rate of 30 ppm in nutrient medium
[6] = pH 2.7, LC-MS in the acidic range, read-out: log P (acid)
[7] = pH 2.7, values given in the synthesis examples and NMR lists, read-out: HPLC-MS: log P

SMILES | efficacy (kill in %) (Myzus persicae [1]; [4]) [%] | efficacy (kill in %) (Myzus persicae [1]; [5]) [%] | log P (acid) ([2]; LC-MS in the acidic range) | efficacy in % (Myzus persicae [3]) [%] | further results
CSCCNC(=O)n1nc(NC(=O)c2cccnc2)cc1C [Compound I-1-167] | 100 | 100 | 1.55 | 90 | 
Cc1cc(NC(=O)c2cccnc2)nn1Cc1cscn1 [Compound I-1-295] | 100 | 100 | 0.95 | 100 | 
Cc1cc(NC(=O)c2cccnc2)nn1CCC#N [Compound I-1-185] | 100 | 100 | 0.57 | 100 | 
Cc1cc(NC(=O)c2cccnc2)nn1C(=O)CCS(C)(=O)=O [Compound I-1-268] | 100 | 100 | 1.04 | 100 | 
Cc1cc(N(C)C(=O)c2cccnc2)nn1C [Compound I-1-16] |  | 100 | 0.65 | 90 | 
Cc1cc(NC(=O)c2cccnc2)nn1C(=O)NC(C)c1ncccn1 (centres unmarked) [Compound I-1-333] | 100 | 100 | 1.29 | 90 | 
COC(=O)C(C)(C)NC(=O)Cn1nc(NC(=O)c2cncc(F)c2)cc1C [Compound I-1-41] |  |  | 1.33 | 90 | 
Cc1cc(NC(=O)c2cccnc2)nn1Cc1cc(C(=O)N(C)C)no1 [Compound I-1-298] | 100 | 100 | 1.09 | 90 | 
O=C(Nc1ccn(Cc2ccc(Cl)nc2)n1)c1cccnc1 [Compound I-1-27] | 100 | 100 | 1.22 | 90 | 
Cc1cc(NC(=O)c2cccnc2)nn1-c1ncccn1 [Compound I-1-23, N-[5-Methyl-1-(pyrimidin-2-yl)-1H-pyrazol-3-yl]nicotinamide] |  |  |  |  | pest or weed control at 6 ppm (Myzus persicae [1]; [4]): 100%; pest or weed control at 30 ppm (Myzus persicae [1]; [5]): 100%; chromatographic logP [2, 6]: 1.16; chromatographic logP [2, 7]: 1.14; pest or weed control at 500 g/ha (Myzus persicae [3]): 100%
COCCn1nc(N(C)C(=O)c2cccnc2)cc1C [Compound I-1-179] |  |  | 0.79 | 100 | 
O=C(Nc1ncn(Cc2ccccc2Cl)n1)c1cccnc1 [Compound I-2-7, N-[1-(2-Chlorobenzyl)-1H-1,2,4-triazol-3-yl]nicotinamide] |  |  |  |  | chromatographic logP ([2]; HPLC on a reversed-phase column (C 18), pH 2.7, values given in the synthesis examples and NMR lists, read-out: HPLC-MS: log P): 1.22; chromatographic logP ([2]; reversed-phase HPLC column (C18), pH 2.7, Table 2, compounds of the formula (I-2), acidic range pH 2.7 or pH 2.3, read-out: log P (acid)): 1.22; pest or weed control at 500 g/ha (Myzus persicae [3]): 100%
Cc1cc(Cn2nc(NC(=O)c3cccnc3)cc2C)oc(=O)c1 [Compound I-1-154] | 100 | 100 |  | 90 | 
Cc1cccc(Cn2nc(NC(=O)c3cccnc3)cc2C)c1 [Compound I-1-50] |  | 100 |  | 90 | 
Cc1cc(NC(=O)c2cccnc2)nn1C(C)(C)C [Compound I-1-347] | 80 | 100 | 1.61 |  | 
Cc1cc(NC(=O)c2ccnnc2)nn1Cc1ccccc1 [Compound I-1-79, N-(1-Benzyl-5-methyl-1H-pyrazol-3-yl)pyridazine-4-carboxamide] |  |  |  |  | pest or weed control at 30 ppm (Myzus persicae [1]; [5]): 100%; chromatographic logP [2, 6]: 1.67; chromatographic logP [2, 7]: 1.67
Cc1cc(C)cc(-n2nc(NC(=O)c3cccnc3)cc2C)c1 [Compound I-1-208] |  | 100 | 2.4 |  | 
CNS(=O)(=O)n1nc(NC(=O)c2cccnc2)cc1C [Compound I-1-257] |  | 100 | 0.55 |  | 

SMILES | efficacy (kill in %) (Myzus persicae [1]; [4]) [%] | efficacy (kill in %) (Myzus persicae [1]; [5]) [%] | log P (acid) ([2]; LC-MS in the acidic range) | efficacy in % (Myzus persicae [3]) [%] | further results
Cc1cc(NC(=O)c2cccnc2)nn1Cc1nc2cc(Cl)ccc2o1 [Compound I-1-340] | 100 | 100 | 2 |  | 
Cc1cc(NC(=O)c2cccnc2)nn1Cc1ccc2c(c1)CCCC2 [Compound I-1-158] |  | 100 | 2.73 |  | 
Cc1cc(NC(=O)c2cccnc2)nn1CC1COc2ccccc2O1 (centres unmarked) [Compound I-1-157] |  | 100 | 1.99 |  | 
COC(=O)c1cccc(Cn2ccc(NC(=O)c3cccnc3)n2)c1 [Compound I-1-77] | 100 | 100 | 1.57 |  | 
Cc1cc(NC(=O)c2cccnc2)nn1C(=O)N(C)S(=O)(=O)c1ccccc1 [Compound I-1-263] | 100 | 100 | 2.13 |  | 
O=C(Nc1ccn(Cc2c(F)cccc2F)n1)c1cccnc1 [Compound I-1-68] |  | 100 | 1.55 |  | 
Cc1cc(NC(=O)c2cccnc2)nn1CS(=O)(=O)c1ncccn1 [Compound I-1-236] | 100 | 100 | 0.74 |  | 
Cc1cc(NC(=O)c2cccnc2)nn1C(=O)c1ccccc1Cl [Compound I-1-122, N-[1-(2-Chlorobenzoyl)-5-methyl-1H-pyrazol-3-yl]nicotinamide] |  |  |  |  | pest or weed control at 6 ppm (Myzus persicae [1]; [4]): 100%; pest or weed control at 30 ppm (Myzus persicae [1]; [5]): 100%; chromatographic logP [2, 6]: 2.27; chromatographic logP [2, 7]: 2.27
CCc1nc(NC(=O)c2cccnc2)nn1-c1ccccc1 [Compound I-2-6] |  | 100 |  |  | log P (acid) ([2]; Table 2, compounds of the formula (I-2), acidic range pH 2.7 or pH 2.3): 1.24
Cc1cc(NC(=O)c2cccnc2)nn1C(=O)NCc1ccc(F)cc1 [Compound I-1-328] | 100 | 100 | 2.12 |  | 
O=C(Nc1cc(C2CC2)n(Cc2ccc(Cl)nc2)n1)c1cccnc1 [Compound I-1-29] | 100 | 100 | 1.77 |  | 
O=C(Nc1ccn(Cc2ccccc2F)n1)c1cccnc1 [Compound I-1-88] | 100 | 100 | 1.58 |  | 
Cc1cc(NC(=O)c2cnc(Cl)c(Cl)c2)nn1Cc1ccccc1 [Compound I-1-100] |  | 100 | 3.18 |  | 
Cc1nc2c(c(NC(=O)c3cncc(F)c3)nn2C)c(C)c1C [Compound I-1-57] | 100 | 100 | 1.6 |  | 
Cc1cc(NC(=O)c2cccnc2)nn1Cc1ncccc1Cl [Compound I-1-37] | 100 | 100 | 1.42 |  | 
Cc1cc(NC(=O)c2cccnc2)nn1-c1ccccc1Cl [Compound I-1-213] |  | 100 | 1.86 |  | 
Cc1cc(NC(=O)c2cccnc2)nn1C(=O)NCc1ccccc1Cl [Compound I-1-323] | 100 | 100 | 2.29 |  | 
CSCn1nc(NC(=O)c2cccnc2)cc1C [Compound I-1-241] | 100 | 100 | 1.17 |  | 
